From patent US11248017B2, “Anti-inflammatory composition including novel kaempferol-based compound derived from post-fermented tea” (AMOREPACIFIC CORPORATION, priority 2017, dated 2022)

How the values were obtained:
[1] = tested on: skin; experiment: Skin accumulation stimulation experiment, human repeated insult patch test (HRIPT); format: in vivo; design: key to skin reactivity (ICDRG criteria): −: negative (no response); ±: doubtful or slight erythema, etc.; +: weak reaction (which is accompanied with no phlyctenule), erythema, papule; ++: severe reaction (which is accompanied with phlyctenule), erythema, papule, phlyctenule; +++: strong reaction, bullae reaction; conditions: for Average reactivity: 9 patches over 3 weeks, 15 subjects, less than 3 = stable composition
Procedure: Human repeated insult patch tests (HRIPT) were performed to confirm the skin accumulation stimulation of the kaempferol3-O-[2-O″-(E)-p-coumaroyl][beta-D-glucopyranosyl-(1→3)-O-alpha-L-rhamnopyranosyl-(1→6)-O-beta-D-glucopyranoside] and to calculate the concentration range available for the skin.
Specifically, 15 healthy adult subjects were randomly selected, and the test composition (the skin composition including an emulsifier, a stabilizer, purified water, etc. in addition to the compound) containing 0.5 wt %, 1 wt %, and 3 wt % of the compound was added dropwise by 20 μl per chamber (IQ chamber, Epitest Ltd, Finland). After 24 hours from patching the upper right part of the back of a subject, it was replaced with the new patch. A total of 9 patches were conducted, three times a week for total 3 weeks, in such manner, the skin reactions before and after patch were examined every time, and the skin reactions until 48 hours after removing the final patch were observed, and the average reactivity was observed.
The skin response was determined according to the criteria of the International Contact Dermatitis Research Group (ICDRG). ‘New material 33’ in the table above is kaempferol3-O-[2-O″-(E)-p-coumaroyl][beta-D-glucopyranosyl-(1→3)-O-alpha-L-rhamnopyranosyl-(1→6)-O-beta-D-glucopyranoside].

[2] = tested on: PGE2 (Prostaglandin E2); experiment: PGE2 production inhibition experiment (ELISA); format: cell-based, Human; conditions: for PGE2: human fibroblasts, 500 μM H2O2 24 h, then test substance (33: 100 μg/ml) 48 h, culture medium
Procedure: (§1) Human fibroblasts (PromoCell, Germany) were seeded into 6-well culture plates at a concentration of 1×10^5 cells and incubated in 37° C., 5% CO2 incubator for 24 hours. After 500 μM of H2O2 was treated in a well and stimulated for 24 hours, the kaempferol3-O-[2-O″-(E)-p-coumaroyl][beta-D-glucopyranosyl-(1-3)-O-alpha-L-rhamnopyranosyl-(1→6)-O-beta-D-glucopyranoside](‘new material 33’) was treated at a concentration of 100 μg/ml each, and was reacted for 48 hours. After completion of the reaction, the culture medium was collected and subjected to ELISA analysis. At this time, α-bisabolol, which is a material frequently used as an anti-inflammation agent and an abirritant, was used as a control. PGE2 used Assay Design's kit and IL-6 and IL-8 used Endogen's kit, and the experiment was conducted according to the method specified in each company's manual. (‘33’ means new material 33) Inhibitory effect={1−(test sample−control)/(H2O2−control)}×100 <Equation 1>

[3] = tested on: IL-6 (Interleukin 6); experiment: IL-6 production inhibition experiment (ELISA); format: cell-based, Human; conditions: for IL-6: human fibroblasts, 500 μM H2O2 24 h, then test substance (33: 100 μg/ml) 48 h, culture medium
Procedure: as §1

[4] = tested on: IL-8 (Interleukin 8); experiment: IL-8 production inhibition experiment (ELISA); format: cell-based, Human; conditions: for IL-8: human fibroblasts, 500 μM H2O2 24 h, then test substance (33: 100 μg/ml) 48 h, culture medium
Procedure: as §1

In the case of `C[C@@H]1O[C@@H](OC[C@H]2O[C@@H](Oc3c(-c4ccc(O)cc4)oc4cc(O)cc(O)c4c3=O)[C@H](OC(=O)/C=C/c3ccc(O)cc3)[C@@H](O)[C@@H]2O)[C@H](O)[C@H](O[C@@H]2O[C@H](CO)[C@@H](O)[C@H](O)[C@H]2O)[C@H]1O` [new material 33, kaempferol3-O-[2-O″-(E)-p-coumaroyl][beta-D-glucopyranosyl-(1→3)-O-alpha-L-rhamnopyranosyl-(1→6)-O-beta-D-glucopyranoside]], the “Number of subjects with + reactivity” value ([1]; 0.5 wt %, 1st patch) is reported as 0 person, the “Number of subjects with ++ reactivity” value ([1]; 0.5 wt %, 1st patch) is reported as 0 person and the “Number of subjects with ± reactivity” value ([1]; 0.5 wt %, 1st patch) is reported as 0 person. For the same compound, the “Number of subjects with + reactivity” value ([1]; 0.5 wt %, 2nd patch) was 0 person, the “Number of subjects with ++ reactivity” value ([1]; 0.5 wt %, 2nd patch) was 0 person and the “Number of subjects with ± reactivity” value ([1]; 0.5 wt %, 2nd patch) was 0 person. For the same compound, the “Number of subjects with + reactivity” value ([1]; 0.5 wt %, 3rd patch) was 0 person, the “Number of subjects with ++ reactivity” value ([1]; 0.5 wt %, 3rd patch) was 0 person and the “Number of subjects with ± reactivity” value ([1]; 0.5 wt %, 3rd patch) was 0 person. For the same compound, the “Number of subjects with + reactivity” value ([1]; 0.5 wt %, 4th patch) was 0 person, the “Number of subjects with ++ reactivity” value ([1]; 0.5 wt %, 4th patch) was 0 person and the “Number of subjects with ± reactivity” value ([1]; 0.5 wt %, 4th patch) was 0 person. The “Number of subjects with + reactivity” value ([1]; 0.5 wt %, 5th patch) was 0 person, the “Number of subjects with ++ reactivity” value ([1]; 0.5 wt %, 5th patch) was 0 person and the “Number of subjects with ± reactivity” value ([1]; 0.5 wt %, 5th patch) was 0 person. The “Number of subjects with + reactivity” value ([1]; 0.5 wt %, 6th patch) was 0 person, the “Number of subjects with ++ reactivity” value ([1]; 0.5 wt %, 6th patch) was 0 person and the “Number of subjects with ± reactivity” value ([1]; 0.5 wt %, 6th patch) was 0 person. The “Number of subjects with + reactivity” value ([1]; 0.5 wt %, 7th patch) was 0 person, the “Number of subjects with ++ reactivity” value ([1]; 0.5 wt %, 7th patch) was 0 person and the “Number of subjects with ± reactivity” value ([1]; 0.5 wt %, 7th patch) was 0 person. For the same compound, the “Number of subjects with + reactivity” value ([1]; 0.5 wt %, 8th patch) was 0 person, the “Number of subjects with ++ reactivity” value ([1]; 0.5 wt %, 8th patch) was 0 person and the “Number of subjects with ± reactivity” value ([1]; 0.5 wt %, 8th patch) was 0 person. The Average reactivity ([1]; 0.5 wt %) was 0, the “Number of subjects with + reactivity” value ([1]; 0.5 wt %, 9th patch) was 0 person and the “Number of subjects with ++ reactivity” value ([1]; 0.5 wt %, 9th patch) was 0 person. The “Number of subjects with ± reactivity” value ([1]; 0.5 wt %, 9th patch) was 0 person, the “Number of subjects with + reactivity” value ([1]; 1 wt %, 1st patch) was 0 person and the “Number of subjects with ++ reactivity” value ([1]; 1 wt %, 1st patch) was 0 person. For the same compound, the “Number of subjects with ± reactivity” value ([1]; 1 wt %, 1st patch) was 0 person, the “Number of subjects with + reactivity” value ([1]; 1 wt %, 2nd patch) was 0 person and the “Number of subjects with ++ reactivity” value ([1]; 1 wt %, 2nd patch) was 0 person. For the same compound, the “Number of subjects with ± reactivity” value ([1]; 1 wt %, 2nd patch) was 0 person, the “Number of subjects with + reactivity” value ([1]; 1 wt %, 3rd patch) was 0 person and the “Number of subjects with ++ reactivity” value ([1]; 1 wt %, 3rd patch) was 0 person. For the same compound, the “Number of subjects with ± reactivity” value ([1]; 1 wt %, 3rd patch) was 0 person, the “Number of subjects with + reactivity” value ([1]; 1 wt %, 4th patch) was 0 person and the “Number of subjects with ++ reactivity” value ([1]; 1 wt %, 4th patch) was 0 person. The “Number of subjects with ± reactivity” value ([1]; 1 wt %, 4th patch) was 0 person, the “Number of subjects with + reactivity” value ([1]; 1 wt %, 5th patch) was 0 person and the “Number of subjects with ++ reactivity” value ([1]; 1 wt %, 5th patch) was 0 person. The “Number of subjects with ± reactivity” value ([1]; 1 wt %, 5th patch) was 0 person, the “Number of subjects with + reactivity” value ([1]; 1 wt %, 6th patch) was 0 person and the “Number of subjects with ++ reactivity” value ([1]; 1 wt %, 6th patch) was 0 person. For the same compound, the “Number of subjects with ± reactivity” value ([1]; 1 wt %, 6th patch) was 0 person, the “Number of subjects with + reactivity” value ([1]; 1 wt %, 7th patch) was 0 person and the “Number of subjects with ++ reactivity” value ([1]; 1 wt %, 7th patch) was 0 person. For the same compound, the “Number of subjects with ± reactivity” value ([1]; 1 wt %, 7th patch) was 0 person, the “Number of subjects with + reactivity” value ([1]; 1 wt %, 8th patch) was 0 person and the “Number of subjects with ++ reactivity” value ([1]; 1 wt %, 8th patch) was 0 person. For the same compound, the “Number of subjects with ± reactivity” value ([1]; 1 wt %, 8th patch) was 0 person, the Average reactivity ([1]; 1 wt %) was 0 and the “Number of subjects with + reactivity” value ([1]; 1 wt %, 9th patch) was 0 person. For the same compound, the “Number of subjects with ++ reactivity” value ([1]; 1 wt %, 9th patch) was 0 person, the “Number of subjects with ± reactivity” value ([1]; 1 wt %, 9th patch) was 0 person and the “Number of subjects with + reactivity” value ([1]; 3 wt %, 1st patch) was 0 person. The “Number of subjects with ++ reactivity” value ([1]; 3 wt %, 1st patch) was 0 person, the “Number of subjects with ± reactivity” value ([1]; 3 wt %, 1st patch) was 0 person and the “Number of subjects with + reactivity” value ([1]; 3 wt %, 2nd patch) was 0 person. For the same compound, the “Number of subjects with ++ reactivity” value ([1]; 3 wt %, 2nd patch) was 0 person, the “Number of subjects with ± reactivity” value ([1]; 3 wt %, 2nd patch) was 0 person and the “Number of subjects with + reactivity” value ([1]; 3 wt %, 3rd patch) was 0 person. The “Number of subjects with ++ reactivity” value ([1]; 3 wt %, 3rd patch) was 0 person, the “Number of subjects with ± reactivity” value ([1]; 3 wt %, 3rd patch) was 0 person and the “Number of subjects with + reactivity” value ([1]; 3 wt %, 4th patch) was 0 person. For the same compound, the “Number of subjects with ++ reactivity” value ([1]; 3 wt %, 4th patch) was 0 person, the “Number of subjects with ± reactivity” value ([1]; 3 wt %, 4th patch) was 0 person and the “Number of subjects with + reactivity” value ([1]; 3 wt %, 5th patch) was 0 person. The “Number of subjects with ++ reactivity” value ([1]; 3 wt %, 5th patch) was 0 person, the “Number of subjects with ± reactivity” value ([1]; 3 wt %, 5th patch) was 0 person and the “Number of subjects with + reactivity” value ([1]; 3 wt %, 6th patch) was 0 person. The “Number of subjects with ++ reactivity” value ([1]; 3 wt %, 6th patch) was 0 person, the “Number of subjects with ± reactivity” value ([1]; 3 wt %, 6th patch) was 0 person and the “Number of subjects with + reactivity” value ([1]; 3 wt %, 7th patch) was 0 person. The “Number of subjects with ++ reactivity” value ([1]; 3 wt %, 7th patch) was 0 person, the “Number of subjects with ± reactivity” value ([1]; 3 wt %, 7th patch) was 0 person and the “Number of subjects with + reactivity” value ([1]; 3 wt %, 8th patch) was 0 person. The “Number of subjects with ++ reactivity” value ([1]; 3 wt %, 8th patch) was 0 person, the “Number of subjects with ± reactivity” value ([1]; 3 wt %, 8th patch) was 0 person and the Average reactivity ([1]; 3 wt %) was 0. For the same compound, the “Number of subjects with + reactivity” value ([1]; 3 wt %, 9th patch) was 0 person, the “Number of subjects with ++ reactivity” value ([1]; 3 wt %, 9th patch) was 0 person and the “Number of subjects with ± reactivity” value ([1]; 3 wt %, 9th patch) was 0 person. For the same compound, the “skin reactivity (ICDRG criteria)” value ([1]; content range 0.5 to 3 wt %, all subjects) was “−”, the “cumulative irritation of the skin” value ([1]; content range 0.5 to 3 wt %, in words) was “no cumulative irritation of the skin” and the inhibition at 100 µg/mL ([2]; Homo sapiens, 100 μg/ml, {1−(test sample−control)/(H2O2−control)}×100, control = a-bisabolol, read-out: Inhibitory Effect according to Equation 1, PGE2) was 82.1%. The PGE2 [2] was 231 pg/mL, the “effect on PGE2 increased by H2O2” value ([2]; in words) was “effect of reducing” and the inhibition at 100 µg/mL ([3]; Homo sapiens, 100 μg/ml, {1−(test sample−control)/(H2O2−control)}×100, control = a-bisabolol, read-out: Inhibitory Effect according to Equation 1, IL-6) was 72.3%. The IL-6 [3] was 198 pg/mL, the “effect on IL-6 increased by H2O2” value ([3]; in words) was “effect of reducing” and the inhibition at 100 µg/mL ([4]; Homo sapiens, 100 μg/ml, {1−(test sample−control)/(H2O2−control)}×100, control = a-bisabolol, read-out: Inhibitory Effect according to Equation 1, IL-8) was 88.9%. For the same compound, the IL-8 [4] was 210 pg/mL and the “effect on IL-8 increased by H2O2” value ([4]; in words) was “effect of reducing”.

With “α-bisabolol [a-bisabolol, reference compound]” the PGE2 [2] was 205 pg/mL, the IL-6 [3] was 180 pg/mL and the IL-8 [4] was 200 pg/mL.
